Assays:
Male Sprague-Dawley rats = assay: Spontaneous striatal electrophysiological activity; settings: MK-801 4 mg/kg after 7-NI; urethane anesthetized rats
Method: Electrophysiology. Four male Sprague-Dawley rats weighing 300 to 400 g were used for electrophysiological studies. Animals were anesthetized with urethane 1.5 g/kg i.p. and placed in a stereotaxic apparatus with their body temperatures maintained at 37° C. by a feedback heating pad. A 0.5×0.5 cm craniotomy was made and recording electrodes were placed in the anterior striatum using stereotaxic coordinates and aural monitoring. Following electrode placement the craniotomy was covered with 4% agar in saline and 30 min were allowed for stabilization before recordings were made. The spontaneous activity of multiple units were recorded extracellularly in the striatum, 3-4 mm anterior to the bregma and 3-4 mm lateral to the midline at a depth of 2.5-4.0 mm using commercially available tungsten microelectrodes (4 M.OMEGA. at 1 kHz, F. Haer, Inc.). […] Data acquisition and analysis of mean firing rate was performed using Discovery.COPYRGT., Experimenters WorkBench.COPYRGT. and Personal Scientific Workstation.COPYRGT. software (DataWave Technologies, Longmont, Colo.). We investigated the electrophysiological effects of the NMDA antagonist MK-801 and the NOS inhibitor 7-NI. […] Finally, spontaneous activity was recorded after the NMDA channel mediated activity was blocked by injection of MK-801 (4 mg/kg).

[1] = 3-NP-induced neurotoxicity in vitro; Riepe et al. 1994; cited from earlier work
Male Swiss-Webster mice [2] = assay: 3-nitrotyrosine to tyrosine ratio in mouse striatum after MPTP; format: in vivo; settings: MPTP 20 mg/kg x4
Method: (§1) Dopamine, 3,4-dihydroxyphenlyacetic acid (DOPAC), homovanillic acid (HVA), p-tyrosine, and 3-nitrotyrosine were quantified by HPLC with 16-electrode electrochemical detection (Beal et al. (1990) supra) and are expressed as ng/mg protein (mean±SEM) (FIG. 1). 3-Nitrotyrosine data are expressed as ratios of 3-nitrotyrosine to p-tyrosine to normalize for differing brain concentrations of tyrosine. The statistical significance of differences was determined via one-way ANOVA followed by Fisher PLSD post hoc test to compare group means. All animal use procedures were in strict accordance with the NIH Guide for the Care and Use of Laboratory Animals and were approved by the local Animal Care Committee.
Role of Peroxynitrite in MPTP. To determine whether peroxynitrite plays a role in MPTP neurotoxicity, we therefore measured the ratio of 3-nitrotyrosine to tyrosine in mouse striatum following administration of MPTP.

Male Swiss-Webster mice [3] = assay: MPTP-induced neurotoxicity in mice: striatal dopamine, DOPAC, HVA; format: in vivo, mouse; settings: at 1 week
Method: Methods. Male Swiss-Webster mice (30-35 g:Taconic Farms, Germantown, N.Y., U.S.A.) were treated with either normal saline or MPTP hydrochloride (Research Biochemicals, Natick, Mass., U.S.A.). MPTP was administered in 0.1 ml of water at a dose of 10 mg/kg i.p. at 2-h intervals for six doses or 20 mg/kg i.p. at 2-h intervals for four doses. 7-NI (Cookson Chemical Ltd., Southhampton, U.K.) was dissolved in peanut oil (Sigma, St. Louis, Mo., U.S.A.) at a concentration of 5 mg/ml. Mice received doses of 25 or 50 mg/kg per subcutaneous injection. MPTP-treated animals were treated with peanut oil or 7-NI 12 h before the first, at every MPTP injection, and every 8 h for 48 h after MPTP injections. Eleven to 12 animals were used in each group. Animals were killed at 1 week. The two striata were rapidly dissected and placed in chilled 0.1M perchloric acid. Tissue was subsequently sonicated, and aliquots were taken for protein quantification using a fluorometric assay (Beal et al., 1990) J. Neurochem. 55:1327-1339).
as §1

dopamine transporter = dopamine transporter (Mus musculus, UniProt Q61327); settings: read-out: concentration giving complete inhibition of [3H]dopamine uptake
[4] = MPTP 10 mg/kg x6 at 2-h intervals

dopamine transporter, sequence (Q61327 whole entry): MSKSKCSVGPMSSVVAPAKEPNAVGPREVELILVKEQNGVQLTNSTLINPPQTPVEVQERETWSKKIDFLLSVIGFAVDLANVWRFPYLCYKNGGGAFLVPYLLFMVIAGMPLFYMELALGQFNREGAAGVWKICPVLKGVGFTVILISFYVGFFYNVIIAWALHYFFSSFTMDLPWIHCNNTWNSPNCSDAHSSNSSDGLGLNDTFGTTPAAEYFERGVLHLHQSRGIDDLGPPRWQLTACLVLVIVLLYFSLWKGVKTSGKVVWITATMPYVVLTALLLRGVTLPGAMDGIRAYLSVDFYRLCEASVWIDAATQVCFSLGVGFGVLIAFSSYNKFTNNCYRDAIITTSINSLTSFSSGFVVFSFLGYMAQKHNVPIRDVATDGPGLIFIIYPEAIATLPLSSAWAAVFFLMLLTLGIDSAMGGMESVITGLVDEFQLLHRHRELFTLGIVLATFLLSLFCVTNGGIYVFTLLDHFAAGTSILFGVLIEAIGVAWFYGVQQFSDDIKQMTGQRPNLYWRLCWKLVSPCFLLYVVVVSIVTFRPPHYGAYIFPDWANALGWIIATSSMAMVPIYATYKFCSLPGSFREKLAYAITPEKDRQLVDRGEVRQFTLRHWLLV

C[C@]12N[C@H](Cc3ccccc31)c1ccccc12 [MK-801, reference compound]
decrease in mean firing rate in striatum (Male Sprague-Dawley rats): rapid and profound
effect on ATP depletions [1]: had no effect

CN1CC=C(c2ccccc2)CC1 [MPTP, 1-methyl-4-phenyl1,2,3,6-tetrahydropyridine]
increase of 3-nitrotyrosine to tyrosine ratio (Male Swiss-Webster mice [2]): 31%
depletion in striatal DOPAC levels (Male Swiss-Webster mice [3]; [4]): 27%
depletion in striatal HVA levels (Male Swiss-Webster mice [3]; [4]): 35%
depletion in striatal dopamine levels (Male Swiss-Webster mice [3]; [4]): 38%
depletion in striatal dopamine levels (Male Swiss-Webster mice [3]; MPTP 20 mg/kg x4): 64%

OC1(c2ccc(Cl)cc2)c2ccccc2C2=NCCN21 (centres unmarked) [mazindol, reference compound]
IC100 (dopamine transporter): 1 µM

Reference: patent publication US5849782A, “Methods of inhibiting neurodegenerative diseases” (The General Hospital Corporation, priority 1996, dated 1998)
